From the C3SDB collision cross section collection
Where a name gives a salt, the structure may show the parent alone.

conditions: [M+H-H2O]+; instrument: TW; calibrated with polyalanine and drug standards

collision cross section (N2)	Structure (SMILES)
166.7 Å²	NS(=O)(=O)c1cc(C2(O)NC(=O)c3ccccc32)ccc1Cl (configuration not stated) [CHLORTHALIDONE]
172 Å²	COc1ccc2c(c1)OC[C@@H](Cc1ccc(OC)c(OC)c1)[C@H]2O [TETRAHYDROSAPPANONE A TRIMETHYL ETHER]

same assay, conditions: [M+H]+; instrument: TW; calibrated with polyalanine and drug standards

Structure (SMILES)	collision cross section (N2)
O=c1c2cc(O)c(O)cc2oc2cc(O)c([C@@H]3O[C@H](CO)[C@@H](O)[C@H](O)[C@H]3O)c(O)c12 [MANGIFERIN]	189.8 Å²
O[C@@H](c1cc(C(F)(F)F)nc2c(C(F)(F)F)cccc12)[C@H]1CCCCN1 [MEFLOQUINE]	181.8 Å²
O=[N+]([O-])c1cc([As](=O)(O)O)ccc1O [ROXARSONE]	145.5 Å²
C/C=C/C(=O)N(CC)c1ccccc1C [CROTAMITON]	145.1 Å²
Cc1noc(NS(=O)(=O)c2ccc(N)cc2)c1C [SULFISOXAZOLE]	159.1 Å²
COc1ccc(C(=O)/C=C/c2ccccc2)cc1 [4'-METHOXYCHALCONE]	153.8 Å²
C=CCSSSCC=C [DIALLYL TRISULFIDE]	126.9 Å²
c1cc2c(cc1[C@H]1OC[C@H]3[C@@H]1CO[C@H]3c1ccc3c(c1)OCO3)OCO2 [ASARININ (-)]	171 Å²
NS(=O)(=O)c1cc2c(cc1Cl)NC=NS2(=O)=O [CHLOROTHIAZIDE]	161 Å²
O=c1cc(-c2ccccc2)oc2cc(O)c(O)c(O)c12 [BAICALEIN]	153.8 Å²
CN(C(=O)CN(CCO)CC(=O)N(C)C(C)(C)Cc1ccccc1)C(C)(C)Cc1ccccc1 [OXETHAZAINE]	213.7 Å²
CC(=O)O[C@@H]1CC[C@@]2(C)C(C[C@@H](OC(C)=O)[C@@]3(C)C4=CC(=O)O[C@@H](c5ccoc5)[C@]4(C)CCC23)C1(C)C (stereo partly drawn) [3alpha-ACETOXYDIHYDRODEOXYGEDUNIN]	218 Å²
COc1cc(Cc2cnc(N)nc2N)cc(OC)c1OC [TRIMETHOPRIM]	171.2 Å²
O=c1c(O)c(-c2ccc(O)cc2)oc2cc(O)cc(O)c12 [KAEMPFEROL]	159.2 Å²
CC1=C(CCC(=O)O)c2cc3nc(cc4[nH]c(cc5[nH]c(cc1n2)c(C)c5C(C)O)c(C)c4C(C)O)C(C)=C3CCC(=O)O (configuration not stated) [HAEMATOPORPHYRIN]	248.4 Å²
CC(C)=CC1C(C(=O)OCc2cccc(Oc3ccccc3)c2)C1(C)C (configuration not stated) [PHENOTHRIN]	187.5 Å²
NCCCNCCSP(=O)(O)O [AMIFOSTINE]	146.9 Å²
NC(Cc1ccc(F)cc1)C(=O)O (configuration not stated) [p-FLUOROPHENYLALANINE]	141.1 Å²
COc1cc2c(cc1OC)C(C)NCC2 (configuration not stated) [SALSOLIDINE]	150.9 Å²
CC(=O)Oc1ccc(/C=C/c2cc(OC(C)=O)cc(OC(C)=O)c2)cc1 [TRIACETYLRESVERATROL]	171.1 Å²
NC1=NCCN1CC(=O)O [CYCLOCREATINE]	124.3 Å²
c1ccc(C2CN3CCSC3=N2)cc1 (configuration not stated) [TETRAMIZOLE]	144 Å²
OC[C@@H]1CCCN2CCCC[C@H]12 [LUPININE]	135.3 Å²
CNCCC=C1c2ccccc2CCc2ccccc21 [NORTRIPTYLINE]	163.1 Å²
COC1=CC(=O)O[C@@H](/C=C/c2ccccc2)C1 [KAWAIN]	149.4 Å²
Nc1cc(-c2ccncc2)c[nH]c1=O [AMRINONE]	139 Å²
COc1cc(-c2coc3cc(OCc4ccccc4)c(OC)c(O)c3c2=O)cc(OCc2ccccc2)c1OC [IRIGENIN, DIBENZYL ETHER]	234.1 Å²
OC[C@H]1O[C@@H](O[C@@H]2[C@@H](CO)O[C@](O)(CO)[C@H]2O)[C@H](O)[C@@H](O)[C@H]1O [LACTULOSE]	169.2 Å²
NC(N)=NOCC[C@H](N)C(=O)O [CANAVANINE]	133.3 Å²

Now from value to compound:

collision cross section (N2)	Structure (SMILES)
158.3 Å²	CC(C)=CCC/C(C)=C/COc1ccc2ccc(=O)oc2c1 [AURAPTENE]
238 Å²	CO/N=C(\C(=O)N[C@@H]1C(=O)N2C(C(=O)OCOC(=O)C(C)(C)C)=C(/C=C\c3scnc3C)CS[C@H]12)c1csc(N)n1 [CEFDITORIN PIVOXIL]
157.4 Å²	COc1ccc(CC(=O)c2ccc(O)cc2O)cc1 [ONONETIN]
181.1 Å²	CC1(C)OC(=O)C(OCC2CC2)=C1c1ccc(S(C)(=O)=O)cc1 [FIROCOXIB]
201.9 Å²	CN1CCN(CC/C=C2/c3ccccc3Sc3ccc(S(=O)(=O)N(C)C)cc32)CC1 [THIOTHIXENE]
169.3 Å²	NS(=O)(=O)c1cc(C(=O)O)c(NCc2ccco2)cc1Cl [FUROSEMIDE]
156.8 Å²	COc1ccc(-c2coc3cc(O)ccc3c2=O)cc1 [FORMONONETIN]
170.7 Å²	CN1C(C(=O)Nc2ccccn2)=C(O)c2ccccc2S1(=O)=O [PIROXICAM]
138.3 Å²	COc1cc(OC)c2ccc(=O)oc2c1 [CITROPTEN]
168.3 Å²	CCCn1cnc2c1c(=O)n(CCCCC(C)=O)c(=O)n2C [PROPENTOFYLLINE]
188.5 Å²	C[C@H]1COc2c(N3CCN(C)CC3)c(F)cc3c(=O)c(C(=O)O)cn1c23 [LEVOFLOXACIN]
170.6 Å²	COc1ccc2c(c1)OCC(Cc1ccc(OC)c(O)c1)C2=O (configuration not stated) [DEOXYSAPPANONE B 7,4'-DIMETHYL ETHER]
200.6 Å²	O=C(/C=C/c1ccccc1)c1ccc(O[C@@H]2O[C@H](CO)[C@@H](O)[C@H](O)[C@H]2O)cc1O [2',4'-DIHYDROXYCHALCONE 4'-GLUCOSIDE]
141.4 Å²	Cc1c(O)c(=O)n(-c2ccccc2)n1C [4-HYDROXYANTIPYRINE]
200.9 Å²	CC1(C)O[C@@H]2C[C@H]3[C@@H]4CCC5=CC(=O)CC[C@]5(C)[C@@]4(F)[C@@H](O)C[C@]3(C)[C@]2(C(=O)CCl)O1 [HALCINONIDE]
196.5 Å²	CC(=O)OCC(=O)[C@@]1(O)CC[C@H]2[C@@H]3CCC4=CC(=O)CC[C@]4(C)[C@H]3C(=O)C[C@@]21C [CORTISONE ACETATE]
180.8 Å²	COc1cc(O)c2c(=O)c(OC)c(-c3ccc(OC)c(OC)c3)oc2c1 [RETUSIN]
141.7 Å²	CCOC(=O)Nc1nc2ccccc2[nH]1 [LOBENDAZOLE]

collision cross section (N2)	Structure (SMILES)
183.3 Å²	CCN1CCCC1CNC(=O)c1cc(S(N)(=O)=O)ccc1OC (configuration not stated) [SULPIRIDE]
208.8 Å²	COC(=O)C[C@H]1C(C)(C)C2(O)OC34CC2C(=O)[C@]1(C)C3CC[C@]1(C)C4=CC(=O)O[C@H]1c1ccoc1 (stereo partly drawn) [8beta-HYDROXYCARAPIN, 3,8-HEMIACETAL]
191.2 Å²	COc1ccc(-c2oc3cc(OC)c(OC)c(OC)c3c(=O)c2OC)cc1OC [HEXAMETHYLQUERCETAGETIN]
139.1 Å²	COc1c2ccoc2cc2oc(C)cc(=O)c12 [VISNAGIN]
212.4 Å²	C[C@]12CCC(=O)C=C1CC[C@@H]1[C@@H]2[C@@H](O)C[C@@]2(C)[C@H]1CC[C@]2(O)C(=O)COC(=O)CCC(=O)O [HYDROCORTISONE HEMISUCCINATE]
150.5 Å²	Nc1ccn([C@@H]2O[C@H](CO)[C@@H](O)[C@@H]2O)c(=O)n1 [CYTARABINE]
159 Å²	COc1ccc2c(c1)OCc1c-2oc2cc(OC)ccc12 [DEHYDROVARIABILIN]
146 Å²	C=C1CCC2C(CC2(C)C)C(=O)CCC1O (configuration not stated) [ISOKOBUSONE]
181.2 Å²	COc1ccc(C(=O)CC(=O)c2ccc(C(C)(C)C)cc2)cc1 [AVOBENZONE]
164.6 Å²	COc1ccc(-c2coc3cc(O)ccc3c2=O)c(OC)c1 [2'-METHOXYFORMONETIN]
177.5 Å²	CN1CCN(C2=c3ccccc3=Nc3ccc(Cl)cc3N2)CC1 [CLOZAPINE]
197.6 Å²	C#C[C@]1(OC(C)=O)CC[C@H]2[C@@H]3CCC4=C/C(=N/O)CC[C@@H]4[C@H]3CC[C@@]21CC [NORGESTIMATE]
190.5 Å²	C=CC1=C(C(=O)O)N2C(=O)[C@@H](NC(=O)/C(=N\O)c3csc(N)n3)[C@H]2SC1 [CEFDINIR]
180.7 Å²	Clc1ccc(C(Cn2ccnc2)OCc2ccsc2Cl)c(Cl)c1 (configuration not stated) [TIOCONAZOLE]
161.1 Å²	CCn1cc(C(=O)O)c(=O)c2cnc(N3CCCC3)nc21 [PIROMIDIC ACID]
171.1 Å²	O=C(/C=C/C(=O)Oc1ccccc1C(=O)O)Oc1ccccc1C(=O)O [BISSALICYL FUMARATE]
148.5 Å²	CCn1nc(C(=O)O)c(=O)c2cc3c(cc21)OCO3 [CINOXACIN]
179.8 Å²	CC1=C2C(O)C(=O)OC3CC4C(C)(C)C(=O)C=C[C@]4(C)C(CC1)[C@]23C (some centres not stated) [MEROGEDUNIN]

same assay, conditions: [M+Na]+; instrument: TW; calibrated with polyalanine and drug standards

collision cross section (N2)	Structure (SMILES)
202.8 Å²	CCCCCCCCCCCCCCCCCCOCC(O)CO (configuration not stated) [BATYL ALCOHOL]
183.3 Å²	CC(C)CC(NC(=O)OCC1c2ccccc2-c2ccccc21)C(=O)O (stereo in doubt) [N- (9-FLUORENYLMETHOXYCARBONYL)-L-LEUCINE]
186.2 Å²	CCCCCCCCCCCC[C@@H](C(=O)O)[C@H](C)C(=O)O [ROCCELLIC ACID]

same assay, conditions: [M]+; instrument: TW; calibrated with polyalanine and drug standards

collision cross section (N2)	Structure (SMILES)
144.2 Å²	O=C1OCCN1/N=C/c1ccc([N+](=O)[O-])o1 [FURAZOLIDONE]
162.3 Å²	C[N+](C)(CCOc1ccccc1)Cc1ccccc1 [BEPHENIUM]
